Reference: PubChem BioAssay AID2060489 (Molecular Pharmacology Branch, DTP, NCI, 2025)
Several values for one entry are separate records, joined by “and”; a condition that tells them apart may be missing. Equal values may be shown once. One block for each compound: values may come before it.

System: 922993-354-T-J3-PDC complex spheroids, viability
Assay: Anticancer human tumor 922993-354-T-J3-PDC patient-derived endometrial carcinoma cell line growth inhibition [GQUAD]
Conditions: for viability, T/C: stronger effect = lower value
Source text: DNA G-quadruplex Stabilizer Agents in Combinations in Complex Spheroids
A high-throughput screen of multi-cell type tumor spheroids was designed to identify active combinations of DNA G-quadruplex stabilizer agents and targeted small molecules. Complex spheroids include a stromal component modeled by human endothelial cells (HUVEC) and fibroblasts modeled by human mesenchymal stem cells (MSCs). The concentration ranges selected for each drug and investigational agent were based upon clinically achievable concentrations if the clinical Cmax of the agent was known.
Compounds. The drugs and investigational agents: pidnarulex (CX-5461; NSC782164), APTO-253 (NSC789042), BRACO-19 (NSC847499), peposertib (NSC802822), ceralasertib (NSC780249), elimusertib (NSC800525), camonsertib (NSC841442), AZD-1390 (NSC803789), olaparib (NSC753686), talazoparib (NSC767125), ART-558 (NSC835418), sotorasib (NSC818433), MRTX-1133 (NSC836407), SN-38 (NSC673596), topotecan (NSC609699), etoposide (NSC141540), doxorubicin (NSC123127), gemcitabine (NSC613327), 5-fluorouracil (NSC19893), paclitaxel (NSC125973), vemurafenib (NSC761431), panobinostat (NSC761190), R-306465 (JNJ-16241199; NSC773264), adavosertib (NSC754352), TP-3654 (NSC805149), carboplatin (NSC241240), KSQ-4279 (NSC840948), and staurosporine (NSC755774) were obtained from the National Cancer Institute (NCI) Developmental Therapeutics Program Chemical Repository (34). The FDA-approved anticancer drug set is available from the NCI Developmental Therapeutics Program. […] The stock solutions were prepared in dimethyl sulfoxide (DMSO, Sigma-Aldrich, St. Louis, MO, cat. D2650) at 800-fold the tested concentration and stored at -70 degrees C prior to their use. All drugs and investigational agents were tested over a range starting from a high concentration at or near the clinical Cmax and decreasing in half-log increments. If the clinical Cmax for an agent had not been determined, the highest concentration tested was 10 microM.
2.3 Cell Culture. All cells were maintained in an incubator at 37 degrees C and 5% CO2 with 95% humidity. The PDC lines were cultured according to standard operating procedures established by the NCI PDMR. All PDCs were thawed and cultured in Matrigel-coated flasks prepared with a working solution of 1X Ham's F-12 nutrient mix, without supplementation (Invitrogen, cat. 11765054), 100 U/mL penicillin-streptomycin (Invitrogen, cat. 15140122), and 2.5% Matrigel (Corning Inc., cat. 354248) for the first three passages. The 857933-349-R-J2-PDC line was cultured in 6C/Colon 1B media, which includes advanced DMEM/F-12 (Thermo Fisher Scientific, cat. 12634028), 10 mM HEPES (Thermo Fisher Scientific, cat. 15630080), 1X GlutaMAX supplement (Thermo Fisher Scientific, cat. 35050061), 0.1 mg/mL primocin (InvivoGen, cat. ant-pm-2), 10% defined fetal bovine serum, heat inactivated (HyClone Laboratories Inc., cat. SH30070.03HI), 50% L-WRN conditioned media (ATCC, cat. CRL-3276), 1.25 mM N-Acetyl-L-cysteine (Sigma-Aldrich, cat. A9165), 10 mM nicotinamide (Sigma-Aldrich, cat. N0636), 1X B-27 supplement (Thermo Fisher Scientific, cat. 17504044), 1X N-2 supplement (Thermo Fisher Scientific, cat. 17502048), 10 microM Y-27632 dihydrochloride (Tocris Bioscience, cat. 1254), and 50 ng/mL human EGF recombinant protein (Thermo Fisher Scientific, cat. PHG0311). The 485176-168-R4-J1-PDC line was cultured in Panc media, which includes all 6C/Colon 1B media components plus 100 ng/mL human FGF-10 (Thermo Fisher Scientific, cat. 100-26), 500 nM SB-431542 (Selleckchem, cat. S1067), and gastrin (Tocris, cat. 3006).
[…]

[1] = curve of first compound, second compound 0.0316 µM
[2] = curve of first compound, second compound 0.1 µM
[3] = curve of first compound, second compound 0.316 µM
[4] = curve of first compound, second compound 1 µM
[5] = curve of first compound, second compound 3.16 µM
[6] = curve of first compound, second compound 10 µM
[7] = second compound 0.0316 µM, first compound 0.000999 µM
[8] = second compound 0.0316 µM, first compound 0.00316 µM
[9] = second compound 0.0316 µM, first compound 0.00999 µM
[10] = second compound 0.0316 µM, first compound 0.0316 µM
[11] = second compound 0.0316 µM, first compound 0.0999 µM
[12] = second compound 0.0316 µM, first compound 0.316 µM
[13] = second compound 0.1 µM, first compound 0.000999 µM
[14] = second compound 0.1 µM, first compound 0.00316 µM
[15] = second compound 0.1 µM, first compound 0.00999 µM
[16] = second compound 0.1 µM, first compound 0.0316 µM
[17] = second compound 0.1 µM, first compound 0.0999 µM
[18] = second compound 0.1 µM, first compound 0.316 µM
[19] = second compound 0.316 µM, first compound 0.000999 µM
[20] = second compound 0.316 µM, first compound 0.00316 µM
[21] = second compound 0.316 µM, first compound 0.00999 µM
[22] = second compound 0.316 µM, first compound 0.0316 µM
[23] = second compound 0.316 µM, first compound 0.0999 µM
[24] = second compound 0.316 µM, first compound 0.316 µM
[25] = second compound 1 µM, first compound 0.000999 µM
[26] = second compound 1 µM, first compound 0.00316 µM
[27] = second compound 1 µM, first compound 0.00999 µM
[28] = second compound 1 µM, first compound 0.0316 µM
[29] = second compound 1 µM, first compound 0.0999 µM
[30] = second compound 1 µM, first compound 0.316 µM
[31] = second compound 3.16 µM, first compound 0.000999 µM
[32] = second compound 3.16 µM, first compound 0.00316 µM
[33] = second compound 3.16 µM, first compound 0.00999 µM
[34] = second compound 3.16 µM, first compound 0.0316 µM
[35] = second compound 3.16 µM, first compound 0.0999 µM
[36] = second compound 3.16 µM, first compound 0.316 µM
[37] = second compound 10 µM, first compound 0.000999 µM
[38] = second compound 10 µM, first compound 0.00316 µM
[39] = second compound 10 µM, first compound 0.00999 µM
[40] = second compound 10 µM, first compound 0.0316 µM
[41] = second compound 10 µM, first compound 0.0999 µM
[42] = second compound 10 µM, first compound 0.316 µM
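Note: spheroids exposed to compounds for seven days.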
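Throughout, for viability, T/C: 100% = DMSO vehicle control viability.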

IC50 [1]: > 316 nM
IC50 [2]: 125 nM
IC50 [3]: 3.91 nM
IC50 [4]: 81.8 nM
IC50 [5]: 53 nM
IC50 [6]: < 0.999 nM
SMILES: CC[C@@]1(O)C(=O)OCc2c1cc1n(c2=O)Cc2cc3c(CN(C)C)c(O)ccc3nc2-1 + Cc1cnc(CNC(=O)c2c(=O)c3ccc(N4CCCN(C)CC4)nc3n3c2sc2ccccc23)cn1
viability, T/C [7]: 94.7%
viability, T/C [8]: 86.6%
viability, T/C [9]: 84%
viability, T/C [10]: 86.9%
viability, T/C [11]: 83.2%
viability, T/C [12]: 54.6%
viability, T/C [13]: 60.6%
viability, T/C [14]: 74.2%
viability, T/C [15]: 55.1%
viability, T/C [16]: 61%
viability, T/C [17]: 50.4%
viability, T/C [18]: 42.7%
viability, T/C [19]: 58.6%
viability, T/C [20]: 53.5%
viability, T/C [21]: 46.7%
viability, T/C [22]: 37.5%
viability, T/C [23]: 41.1%
viability, T/C [24]: 40.3%
viability, T/C [25]: 42.2%
viability, T/C [26]: 58.5%
viability, T/C [27]: 39.6%
viability, T/C [28]: 62.3%
viability, T/C [29]: 49.1%
viability, T/C [30]: 36.2%
viability, T/C [31]: 52.1%
viability, T/C [32]: 54.9%
viability, T/C [33]: 63.4%
viability, T/C [34]: 42.5%
viability, T/C [35]: 49.2%
viability, T/C [36]: 45.3%
viability, T/C [37]: 45.5%
viability, T/C [38]: 36.3%
viability, T/C [39]: 43.3%
viability, T/C [40]: 44.1%
viability, T/C [41]: 46.2%
viability, T/C [42]: 47.5%

IC50 (curve of compound): 8.01 nM and 5.66 nM and 7.43 nM
SMILES: CCc1c2c(nc3ccc(O)cc13)-c1cc3c(c(=O)n1C2)COC(=O)[C@]3(O)CC
viability, T/C (compound 0.000999 µM): 87% and 104% and 96.5%
viability, T/C (compound 0.00316 µM): 71.4% and 69.9% and 67.3%
viability, T/C (compound 0.00999 µM): 48% and 31.8% and 48.8%
viability, T/C (compound 0.0316 µM): 18.4% and 10.6% and 23.2%
viability, T/C (compound 0.0999 µM): 24.3% and 11.3% and 29.4%
viability, T/C (compound 0.316 µM): 24.9% and 13.8% and 31.8%

SMILES: CC[C@@]1(O)C(=O)OCc2c1cc1n(c2=O)Cc2cc3c(CN(C)C)c(O)ccc3nc2-1 + CN(C)c1ccc(Nc2c3ccc(NC(=O)CCN4CCCC4)cc3nc3cc(NC(=O)CCN4CCCC4)ccc23)cc1
IC50 [1]: 279 nM
IC50 [2]: > 316 nM
IC50 [3]: 286 nM
IC50 [4]: 265 nM
IC50 [5]: 302 nM
IC50 [6]: > 316 nM
viability, T/C [7]: 100%
viability, T/C [8]: 74.3%
viability, T/C [9]: 99.8%
viability, T/C [10]: 91.9%
viability, T/C [11]: 77.3%
viability, T/C [12]: 46.6%
viability, T/C [13]: 120%
viability, T/C [14]: 110%
viability, T/C [15]: 89.3%
viability, T/C [16]: 82.7%
viability, T/C [17]: 88.9%
viability, T/C [18]: 43.4%
viability, T/C [19]: 90.5%
viability, T/C [20]: 98.4%
viability, T/C [21]: 79.2%
viability, T/C [22]: 84%
viability, T/C [23]: 92.5%
viability, T/C [24]: 46.2%
viability, T/C [25]: 100%
viability, T/C [26]: 106%
viability, T/C [27]: 97.7%
viability, T/C [28]: 94.5%
viability, T/C [29]: 76.8%
viability, T/C [30]: 45.1%
viability, T/C [31]: 101%
viability, T/C [32]: 109%
viability, T/C [33]: 99.6%
viability, T/C [34]: 117%
viability, T/C [35]: 115%
viability, T/C [36]: 47.6%
viability, T/C [37]: 109%
viability, T/C [38]: 115%
viability, T/C [39]: 110%
viability, T/C [40]: 97.3%
viability, T/C [41]: 115%
viability, T/C [42]: 59.4%
